Source: US20140348819A1, “Methods of Treating Cancer” (Dana-Farber Cancer Institute, Inc., priority 2011, published 2014)

Tested on: six V600E BRAF melanoma cell lines
Experiment: Screening of recombinant RTK ligands for ability to confer resistance to BRAFi (PLX4720) or MEKi (PD184352) (Table 4)
Assay type: cell-based, human
Parameters: ability of recombinant RTK ligand to confer resistance / ability of recombinant RTK ligand to confer resistance (screening value): scale not given here
Description: HGF is the only one that can substantially confer drug resistance to the cell lines.
The complexity of the tumor microenvironment is much greater than an in vitro co-culture system. Therefore, the inventors explored whether the activation of other RTKs could result in a similar resistance as that observed with the activation of MET. To this end, six V600E BRAF melanoma cell lines were tested for their resistance to either BRAFi (PLX4720) or MEKi (PD184352) after the addition of 22 RTK ligands that have the potential of activating almost all known RTKs. […] The activation of a selected subset of these RTKs was confirmed by western blotting and by high throughput tyrosine kinase phosphorylation profiling.

## FGF1
A2058, PD184352 - 1 uM, ligand 0.4 ng/ml
  ability of recombinant RTK ligand to confer resistance: 1.04
A2058, PD184352 - 1 uM, ligand 1.6 ng/ml
  ability of recombinant RTK ligand to confer resistance: 1.05
A2058, PD184352 - 1 uM, ligand 6.25 ng/ml
  ability of recombinant RTK ligand to confer resistance: 1.04
A2058, PD184352 - 1 uM, ligand 25 ng/ml
  ability of recombinant RTK ligand to confer resistance: 1.12
A2058, PD184352 - 1 uM, ligand 100 ng/ml
  ability of recombinant RTK ligand to confer resistance: 1.19
A2058, PLX4720 - 2 uM, ligand 0.4 ng/ml
  ability of recombinant RTK ligand to confer resistance: 1.02
A2058, PLX4720 - 2 uM, ligand 1.6 ng/ml
  ability of recombinant RTK ligand to confer resistance: 1.01
A2058, PLX4720 - 2 uM, ligand 6.25 ng/ml
  ability of recombinant RTK ligand to confer resistance: 0.96
A2058, PLX4720 - 2 uM, ligand 25 ng/ml
  ability of recombinant RTK ligand to confer resistance: 1.05
A2058, PLX4720 - 2 uM, ligand 100 ng/ml
  ability of recombinant RTK ligand to confer resistance: 1.11
C32, PD184352 - 1 uM, ligand 0.4 ng/ml
  ability of recombinant RTK ligand to confer resistance: 1.01
C32, PD184352 - 1 uM, ligand 1.6 ng/ml
  ability of recombinant RTK ligand to confer resistance: 1.04
C32, PD184352 - 1 uM, ligand 6.25 ng/ml
  ability of recombinant RTK ligand to confer resistance: 1.03
C32, PD184352 - 1 uM, ligand 25 ng/ml
  ability of recombinant RTK ligand to confer resistance: 1.02
C32, PD184352 - 1 uM, ligand 100 ng/ml
  ability of recombinant RTK ligand to confer resistance: 0.97
C32, PLX4720 - 2 uM, ligand 0.4 ng/ml
  ability of recombinant RTK ligand to confer resistance: 1.11
C32, PLX4720 - 2 uM, ligand 1.6 ng/ml
  ability of recombinant RTK ligand to confer resistance: 1.10
C32, PLX4720 - 2 uM, ligand 6.25 ng/ml
  ability of recombinant RTK ligand to confer resistance: 1.08
C32, PLX4720 - 2 uM, ligand 25 ng/ml
  ability of recombinant RTK ligand to confer resistance: 0.93
C32, PLX4720 - 2 uM, ligand 100 ng/ml
  ability of recombinant RTK ligand to confer resistance: 1.00
Colo 829, PD184352 - 1 uM, ligand 0.4 ng/ml
  ability of recombinant RTK ligand to confer resistance: 1.02
Colo 829, PD184352 - 1 uM, ligand 1.6 ng/ml
  ability of recombinant RTK ligand to confer resistance: 1.11
Colo 829, PD184352 - 1 uM, ligand 6.25 ng/ml
  ability of recombinant RTK ligand to confer resistance: 1.00
Colo 829, PD184352 - 1 uM, ligand 25 ng/ml
  ability of recombinant RTK ligand to confer resistance: 1.08
Colo 829, PD184352 - 1 uM, ligand 100 ng/ml
  ability of recombinant RTK ligand to confer resistance: 1.12
Colo 829, PLX4720 - 2 uM, ligand 0.4 ng/ml
  ability of recombinant RTK ligand to confer resistance: 0.99
Colo 829, PLX4720 - 2 uM, ligand 1.6 ng/ml
  ability of recombinant RTK ligand to confer resistance: 1.09
Colo 829, PLX4720 - 2 uM, ligand 6.25 ng/ml
  ability of recombinant RTK ligand to confer resistance: 1.02
Colo 829, PLX4720 - 2 uM, ligand 25 ng/ml
  ability of recombinant RTK ligand to confer resistance: 1.07
Colo 829, PLX4720 - 2 uM, ligand 100 ng/ml
  ability of recombinant RTK ligand to confer resistance: 1.06
G-361, PD184352 - 1 uM, ligand 0.4 ng/ml
  ability of recombinant RTK ligand to confer resistance: 0.99
G-361, PD184352 - 1 uM, ligand 1.6 ng/ml
  ability of recombinant RTK ligand to confer resistance: 1.09
G-361, PD184352 - 1 uM, ligand 6.25 ng/ml
  ability of recombinant RTK ligand to confer resistance: 0.99
G-361, PD184352 - 1 uM, ligand 25 ng/ml
  ability of recombinant RTK ligand to confer resistance: 1.08
G-361, PD184352 - 1 uM, ligand 100 ng/ml
  ability of recombinant RTK ligand to confer resistance: 1.04
G-361, PLX4720 - 2 uM, ligand 0.4 ng/ml
  ability of recombinant RTK ligand to confer resistance: 0.96
G-361, PLX4720 - 2 uM, ligand 1.6 ng/ml
  ability of recombinant RTK ligand to confer resistance: 0.95
G-361, PLX4720 - 2 uM, ligand 6.25 ng/ml
  ability of recombinant RTK ligand to confer resistance: 0.92
G-361, PLX4720 - 2 uM, ligand 25 ng/ml
  ability of recombinant RTK ligand to confer resistance: 0.89
G-361, PLX4720 - 2 uM, ligand 100 ng/ml
  ability of recombinant RTK ligand to confer resistance: 1.08
SK-MEL-5, PD184352 - 1 uM, ligand 0.4 ng/ml
  ability of recombinant RTK ligand to confer resistance: 0.98
SK-MEL-5, PD184352 - 1 uM, ligand 1.6 ng/ml
  ability of recombinant RTK ligand to confer resistance: 1.07
SK-MEL-5, PD184352 - 1 uM, ligand 6.25 ng/ml
  ability of recombinant RTK ligand to confer resistance: 1.14
SK-MEL-5, PD184352 - 1 uM, ligand 25 ng/ml
  ability of recombinant RTK ligand to confer resistance: 1.17
SK-MEL-5, PD184352 - 1 uM, ligand 100 ng/ml
  ability of recombinant RTK ligand to confer resistance: 1.36
SK-MEL-5, PLX4720 - 2 uM, ligand 0.4 ng/ml
  ability of recombinant RTK ligand to confer resistance: 1.01
SK-MEL-5, PLX4720 - 2 uM, ligand 1.6 ng/ml
  ability of recombinant RTK ligand to confer resistance: 1.12
SK-MEL-5, PLX4720 - 2 uM, ligand 6.25 ng/ml
  ability of recombinant RTK ligand to confer resistance: 1.12
SK-MEL-5, PLX4720 - 2 uM, ligand 25 ng/ml
  ability of recombinant RTK ligand to confer resistance: 1.09
SK-MEL-5, PLX4720 - 2 uM, ligand 100 ng/ml
  ability of recombinant RTK ligand to confer resistance: 1.28
SK-MEL-28, PD184352 - 1 uM, ligand 0.4 ng/ml
  ability of recombinant RTK ligand to confer resistance: 1.05
SK-MEL-28, PD184352 - 1 uM, ligand 1.6 ng/ml
  ability of recombinant RTK ligand to confer resistance: 0.87
SK-MEL-28, PD184352 - 1 uM, ligand 6.25 ng/ml
  ability of recombinant RTK ligand to confer resistance: 0.90
SK-MEL-28, PD184352 - 1 uM, ligand 25 ng/ml
  ability of recombinant RTK ligand to confer resistance: 0.92
SK-MEL-28, PD184352 - 1 uM, ligand 100 ng/ml
  ability of recombinant RTK ligand to confer resistance: 1.06
SK-MEL-28, PLX4720 - 2 uM, ligand 0.4 ng/ml
  ability of recombinant RTK ligand to confer resistance: 1.00
SK-MEL-28, PLX4720 - 2 uM, ligand 1.6 ng/ml
  ability of recombinant RTK ligand to confer resistance: 1.02
SK-MEL-28, PLX4720 - 2 uM, ligand 6.25 ng/ml
  ability of recombinant RTK ligand to confer resistance: 1.10
SK-MEL-28, PLX4720 - 2 uM, ligand 25 ng/ml
  ability of recombinant RTK ligand to confer resistance: 0.98
SK-MEL-28, PLX4720 - 2 uM, ligand 100 ng/ml
  ability of recombinant RTK ligand to confer resistance: 1.08
